Test results taken from ChEMBL document CHEMBL5038666, “Discovery of DNA-Targeting HDAC Inhibitors with Potent Antitumor Efficacy In Vivo That Trigger Antitumor Immunity” (J Med Chem, 2022).
One block for each compound: values may come before it. Calls of active or inactive are those of the source. The rule behind the calls is not given here.

Assays:
Histone deacetylase = assay: Inhibition of HDAC in human HeLa nuclear extract using fluorogenic substrate incubated for 30 mins by fluorescence based assay; type: cell-based
Histone deacetylase 1 = Histone deacetylase 1 (Homo sapiens, UniProt Q13547); assay: Inhibition of HDAC1 (unknown origin) using fluorogenic substrate incubated for 30 mins by fluorescence based assay
Histone deacetylase 2 = Histone deacetylase 2 (Homo sapiens, UniProt Q92769); assay: Inhibition of HDAC2 (unknown origin) using fluorogenic substrate incubated for 30 mins by fluorescence based assay
[1] = target: T1, Protein deacetylase HDAC6 (Homo sapiens, UniProt Q9UBN7); assay: Inhibition of HDAC6 (unknown origin) using fluorogenic substrate incubated for 30 mins by fluorescence based assay
T1 sequence (Q9UBN7 whole entry): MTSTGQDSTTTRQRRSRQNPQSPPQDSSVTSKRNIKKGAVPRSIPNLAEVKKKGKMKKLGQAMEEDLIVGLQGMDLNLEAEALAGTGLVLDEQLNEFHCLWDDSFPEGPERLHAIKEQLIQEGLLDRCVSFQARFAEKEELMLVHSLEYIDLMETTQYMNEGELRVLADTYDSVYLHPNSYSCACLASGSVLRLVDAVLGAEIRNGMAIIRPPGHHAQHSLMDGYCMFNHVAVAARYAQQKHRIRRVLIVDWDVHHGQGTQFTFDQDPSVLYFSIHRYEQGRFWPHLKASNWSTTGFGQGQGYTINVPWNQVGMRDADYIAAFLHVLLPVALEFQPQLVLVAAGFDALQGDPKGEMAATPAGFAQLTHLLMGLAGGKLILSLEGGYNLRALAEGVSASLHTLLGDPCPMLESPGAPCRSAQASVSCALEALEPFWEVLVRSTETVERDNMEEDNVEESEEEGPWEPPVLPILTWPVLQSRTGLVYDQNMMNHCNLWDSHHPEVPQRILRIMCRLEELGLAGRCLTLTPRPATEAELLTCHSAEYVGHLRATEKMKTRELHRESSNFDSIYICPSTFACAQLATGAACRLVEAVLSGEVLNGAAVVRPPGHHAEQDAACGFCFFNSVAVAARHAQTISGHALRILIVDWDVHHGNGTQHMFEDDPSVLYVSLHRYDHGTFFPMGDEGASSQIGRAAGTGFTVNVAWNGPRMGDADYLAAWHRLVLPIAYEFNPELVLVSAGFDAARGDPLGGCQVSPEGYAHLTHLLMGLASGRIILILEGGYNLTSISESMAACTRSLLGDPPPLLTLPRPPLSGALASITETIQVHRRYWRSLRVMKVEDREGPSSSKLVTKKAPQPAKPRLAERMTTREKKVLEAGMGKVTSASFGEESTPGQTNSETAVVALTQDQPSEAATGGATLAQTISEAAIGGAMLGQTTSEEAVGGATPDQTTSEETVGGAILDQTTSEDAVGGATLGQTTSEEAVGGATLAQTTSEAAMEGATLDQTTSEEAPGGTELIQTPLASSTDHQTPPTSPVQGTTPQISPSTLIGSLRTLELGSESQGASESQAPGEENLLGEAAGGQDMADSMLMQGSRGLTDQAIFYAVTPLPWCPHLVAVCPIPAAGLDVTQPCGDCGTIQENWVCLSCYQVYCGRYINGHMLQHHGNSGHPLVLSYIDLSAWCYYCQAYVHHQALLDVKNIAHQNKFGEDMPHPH

Histone deacetylase 8 = target: T2, Histone deacetylase 8 (Homo sapiens, UniProt Q9BY41); assay: Inhibition of HDAC8 (unknown origin) using fluorogenic substrate incubated for 30 mins by fluorescence based assay
T2 sequence (Q9BY41 whole entry): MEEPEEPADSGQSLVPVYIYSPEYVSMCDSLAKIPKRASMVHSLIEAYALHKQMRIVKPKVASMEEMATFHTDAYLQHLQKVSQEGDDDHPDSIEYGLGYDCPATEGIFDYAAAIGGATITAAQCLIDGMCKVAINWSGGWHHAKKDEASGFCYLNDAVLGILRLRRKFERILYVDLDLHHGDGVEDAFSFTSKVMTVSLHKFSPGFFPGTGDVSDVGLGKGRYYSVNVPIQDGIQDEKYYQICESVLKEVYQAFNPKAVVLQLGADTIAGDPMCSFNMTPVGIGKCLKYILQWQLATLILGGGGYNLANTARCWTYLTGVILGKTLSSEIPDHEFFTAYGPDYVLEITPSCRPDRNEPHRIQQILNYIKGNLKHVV

PC-3 = assay: cells; type: functional, cell-based; conditions: Homo sapiens, PC-3, 48 h
Description: Antiproliferative activity against human PC3 cells assessed as inhibition of cell growth measured after 48 hrs by MTT assay

HepG2 = assay: cells; type: functional, cell-based; conditions: Homo sapiens, HepG2, 48 h
Description: Antiproliferative activity against human HepG2 cells assessed as inhibition of cell growth measured after 48 hrs by MTT assay

HEL = assay: cells; type: functional, cell-based; conditions: Homo sapiens, 48 h
Description: Antiproliferative activity against HEL cells assessed as inhibition of cell growth measured after 48 hrs by MTT assay

KG-1 [2] = assay: Antiproliferative activity against human KG-1 cells assessed as inhibition of cell growth measured after 48 hrs by MTT assay; type: functional, cell-based; conditions: KG-1, 48 h
K562 = assay: cells; type: functional, cell-based; conditions: Homo sapiens, K562, 48 h
Description: Antiproliferative activity against human K562 cells assessed as inhibition of cell growth measured after 48 hrs by MTT assay

DNA = assay: Binding affinity to nuclear DNA in human HepG2 cells assessed as colocalization of acridine orange-test compound signal at 5 uM by confocal fluorescence microscopic analysis; type: functional, cell-based
Calf thymus DNA [3] = assay: Binding affinity to calf thymus DNA assessed as change in entropy at 500 microM by isothermal titration calorimetric analysis; type: nucleic-acid assay; conditions: Bos taurus
Calf thymus DNA [4] = assay: Binding affinity to calf thymus DNA assessed as increase in absorption at 20 uM by UV-vis absorption spectroscopy; type: nucleic-acid assay; conditions: Bos taurus
B16-F10 [5] = assay: Antitumor activity against mouse B16-F10 cells implanted in C57BL/6J mouse assessed as reduction on tumor weight at 60 mg/kg, IG administered for 12 days; type: functional, organism-based; conditions: time 12.0 day
KG-1 [6] = assay: Downregulation of SPT16 expression in human KG-1 cells assessed as chromatin damage at 0.5 to […] measured after 24 hrs by Western blot analysis; type: functional, cell-based; conditions: dose 0.5-2.5 µM
KG-1 [7] = assay: Downregulation of SSRP-1 expression in human KG-1 cells assessed as chromatin damage at 0.5 to […] measured after 24 hrs by Western blot analysis; type: functional, cell-based; conditions: dose 0.5-2.5 µM
KG-1 [8] = assay: Induction of apoptosis in human KG-1 cells assessed as total apoptotic cells at 1 uM measured after 24 hrs by Annexin V-FITC/propidium iodide staining based flow cytometry analysis relative to control; type: functional
B16-F10 [9] = assay: Antitumor activity against mouse B16-F10 cells implanted in C57BL/6J mouse assessed as reduction on tumor volume at 60 mg/kg, IG administered for 12 days; type: functional, organism-based; conditions: time 12.0 day
B16-F10 [10] = assay: Antitumor activity against mouse B16-F10 cells implanted in C57BL/6J mouse assessed as reduction on tumor size at 60 mg/kg, IG administered for 12 days; type: functional, organism-based; conditions: time 12.0 day
[11] = Toxicity in C57BL/6J mouse implanted with mouse B16-F10 cells assessed as effect on body weight at 60 mg/kg, IG administered for 12 days; type: organism-based; conditions: in vivo, po, 288 h, time 12 day
[12] = Toxicity in C57BL/6J mouse implanted with mouse B16-F10 cells assessed as lung damage at 60 mg/kg, IG administered for 12 days H and E staining based histopathological analysis; type: organism-based; conditions: in vivo, po, 288 h, time 12 day
[13] = Toxicity in C57BL/6J mouse implanted with mouse B16-F10 cells assessed as glomerular structure damage in kidney at 60 mg/kg, IG administered for 12 days H and E staining based histopathological analysis; type: organism-based; conditions: in vivo, po, 288 h, time 12 day
[14] = Toxicity in C57BL/6J mouse implanted with mouse B16-F10 cells assessed as liver damage at 60 mg/kg, IG administered for 12 days H and E staining based histopathological analysis; type: organism-based; conditions: in vivo, po, 288 h, time 12 day
[15] = Toxicity in C57BL/6J mouse implanted with mouse B16-F10 cells assessed as heart damage at 60 mg/kg, IG administered for 12 days H and E staining based histopathological analysis; type: organism-based; conditions: in vivo, po, 288 h, time 12 day
[16] = Toxicity in C57BL/6J mouse implanted with mouse B16-F10 cells assessed as spleen damage at 60 mg/kg, IG administered for 12 days H and E staining based histopathological analysis; type: organism-based; conditions: in vivo, po, 288 h, time 12 day
B16-F10 [17] = assay: Antitumor immunity against mouse B16-F10 cells implanted in C57BL/6J mouse assessed as increase in proportion of T cells in spleen by flow cytometry analysis; type: functional, cell-based
B16-F10 [18] = assay: Antitumor activity against mouse B16-F10 cells xenografted in C57BL/6J mouse assessed as reduction in tumor heterogeneity at 60 mg/kg, IG administered for 12 days by H and E staining based histopathological analysis; type: functional, organism-based; conditions: time 12.0 day
B16-F10 [19] = assay: Antitumor activity against mouse B16-F10 cells xenografted in C57BL/6J mouse assessed as change in tumor cell morphology into normal tissue at 60 mg/kg, IG administered for 12 days by H and E staining based histopathological analysis; type: functional, organism-based; conditions: time 12.0 day

Sequence of Histone deacetylase 1 (Q13547 whole entry): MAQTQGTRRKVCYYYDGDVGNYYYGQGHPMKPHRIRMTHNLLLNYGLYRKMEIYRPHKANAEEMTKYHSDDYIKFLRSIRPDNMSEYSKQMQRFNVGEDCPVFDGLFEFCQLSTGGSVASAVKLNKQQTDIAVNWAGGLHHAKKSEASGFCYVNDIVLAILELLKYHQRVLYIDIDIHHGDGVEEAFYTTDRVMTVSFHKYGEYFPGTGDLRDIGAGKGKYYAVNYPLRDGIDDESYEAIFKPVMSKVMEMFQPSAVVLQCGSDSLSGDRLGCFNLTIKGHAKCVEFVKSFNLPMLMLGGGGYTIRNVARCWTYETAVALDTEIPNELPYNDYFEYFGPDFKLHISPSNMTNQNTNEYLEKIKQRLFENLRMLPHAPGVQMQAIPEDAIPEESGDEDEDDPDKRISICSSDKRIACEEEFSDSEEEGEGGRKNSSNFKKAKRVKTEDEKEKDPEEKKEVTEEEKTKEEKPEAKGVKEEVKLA
Sequence of Histone deacetylase 2 (Q92769 whole entry): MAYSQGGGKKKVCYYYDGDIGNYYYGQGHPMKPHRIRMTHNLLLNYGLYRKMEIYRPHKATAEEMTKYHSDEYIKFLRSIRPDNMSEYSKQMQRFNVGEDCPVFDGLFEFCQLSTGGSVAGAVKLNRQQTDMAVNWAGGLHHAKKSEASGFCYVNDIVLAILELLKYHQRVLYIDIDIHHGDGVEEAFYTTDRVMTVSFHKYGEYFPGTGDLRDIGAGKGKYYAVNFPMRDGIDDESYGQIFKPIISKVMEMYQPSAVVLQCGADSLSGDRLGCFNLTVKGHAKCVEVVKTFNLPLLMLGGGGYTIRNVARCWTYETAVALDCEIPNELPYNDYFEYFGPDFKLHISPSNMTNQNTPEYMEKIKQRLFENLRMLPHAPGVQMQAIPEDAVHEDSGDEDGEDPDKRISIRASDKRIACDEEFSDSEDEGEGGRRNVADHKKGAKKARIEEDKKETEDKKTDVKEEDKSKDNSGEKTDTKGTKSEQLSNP

IC50 (Histone deacetylase): 189.1 nM
SMILES: O=C(CCCCOc1ccc(-c2nc3ccccc3[nH]2)cc1)NO

IC50 (Histone deacetylase): 7.3 nM
IC50 (Histone deacetylase 1): 47 nM
IC50 (Histone deacetylase 2): 81 nM
IC50 [1]: 23 nM
IC50 (Histone deacetylase 8): > 20000 nM
IC50 (PC-3): 6900 nM
IC50 (HepG2): 16000 nM
IC50 (HEL): 2300 nM
IC50 (K562): 2900 nM
SMILES: O=C(CCCCCCCOc1cccc(-c2nc3ccc(-c4nc5ccccc5[nH]4)cc3[nH]2)c1)NO
IC50 (KG-1 [2]): 1600 nM

IC50 (Histone deacetylase): 49.3 nM
SMILES: O=C(CCCCCCCOc1ccc(-c2nc3ccccc3[nH]2)cc1)NO

IC50 (Histone deacetylase): 304.3 nM
SMILES: O=C(CCCCOc1cccc(-c2nc3ccc(-c4nc5ccccc5[nH]4)cc3[nH]2)c1)NO

IC50 (Histone deacetylase): 27.4 nM
SMILES: O=C(CCCCCOc1cccc(-c2nc3ccc(-c4nc5ccccc5[nH]4)cc3[nH]2)c1)NO

IC50 (Histone deacetylase): 17.9 nM
SMILES: O=C(CCCCCCOc1cccc(-c2nc3ccc(-c4nc5ccccc5[nH]4)cc3[nH]2)c1)NO

IC50 (Histone deacetylase): 194.4 nM
SMILES: O=C(CCCCOc1cccc(-c2nc3ccccc3[nH]2)c1)NO

IC50 (Histone deacetylase): 50 nM
SMILES: O=C(CCCOc1cccc(-c2nc3ccc(-c4nc5ccccc5[nH]4)cc3[nH]2)c1)NO

IC50 (Histone deacetylase): 76 nM
SMILES: O=C(CCCCCOc1ccc(-c2nc3ccccc3[nH]2)cc1)NO

IC50 (Histone deacetylase): 118.6 nM
SMILES: O=C(CCCCCOc1cccc(-c2nc3ccccc3[nH]2)c1)NO

IC50 (Histone deacetylase): 490.4 nM
SMILES: O=C(CCCOc1cccc(-c2nc3ccccc3[nH]2)c1)NO

IC50 (Histone deacetylase): 40.3 nM
SMILES: O=C(CCCCCCOc1ccc(-c2nc3ccccc3[nH]2)cc1)NO

IC50 (Histone deacetylase): 981.3 nM
SMILES: O=C(CCCOc1ccc(-c2nc3ccccc3[nH]2)cc1)NO

IC50 (Histone deacetylase): > 1000 nM
SMILES: O=C(COc1cccc(-c2nc3ccccc3[nH]2)c1)NO

Further lines, the compound ahead of its results:

SMILES: O=C(CCCCCCCOc1ccc(-c2nc3ccc(-c4nc5ccccc5[nH]4)cc3[nH]2)cc1)NO
IC50 (Histone deacetylase): 20.1 nM

SMILES: O=C(COc1ccc(-c2nc3ccc(-c4nc5ccccc5[nH]4)cc3[nH]2)cc1)NO
IC50 (Histone deacetylase): > 1000 nM

SMILES: CN1CCN(c2ccc3nc(-c4ccc5nc(-c6ccc(O)cc6)[nH]c5c4)[nH]c3c2)CC1
IC50 (KG-1 [2]): 42000 nM

SMILES: O=C(CCCCCOc1ccc(-c2nc3ccc(-c4nc5ccccc5[nH]4)cc3[nH]2)cc1)NO
IC50 (Histone deacetylase): 43.62 nM

SMILES: O=C(COc1cccc(-c2nc3ccc(-c4nc5ccccc5[nH]4)cc3[nH]2)c1)NO
IC50 (Histone deacetylase): > 1000 nM

SMILES: O=C(CCCCCCOc1ccc(-c2nc3ccc(-c4nc5ccccc5[nH]4)cc3[nH]2)cc1)NO
IC50 (Histone deacetylase): 7.6 nM
IC50 (Histone deacetylase 1): 31 nM
IC50 (Histone deacetylase 2): 32 nM
IC50 [1]: 29 nM
IC50 (Histone deacetylase 8): > 20000 nM
Activity (DNA): Active
-TdeltaS (Calf thymus DNA [3]): 45.3 kcal/mol
IC50 (PC-3): 4400 nM
IC50 (HepG2): 11000 nM
IC50 (HEL): 1900 nM
IC50 (KG-1 [2]): 1400 nM
IC50 (K562): 510 nM
Activity (Calf thymus DNA [4]): Active

SMILES: O=C(COc1ccc(-c2nc3ccccc3[nH]2)cc1)NO
IC50 (Histone deacetylase): 156.7 nM

SMILES: O=C(CCCCOc1ccc(-c2nc3ccc(-c4nc5ccccc5[nH]4)cc3[nH]2)cc1)NO
IC50 (Histone deacetylase): 218.8 nM

SMILES: O=C(CCCCCCC(=O)Nc1ccccc1)NO [VORINOSTAT]
Activity (B16-F10 [5]): Active
IC50 (KG-1 [2]): 70 nM
Activity (KG-1 [6]): inactive
Activity (KG-1 [7]): inactive
Activity (KG-1 [8]): 18.2%
Activity (B16-F10 [9]): Active
Activity (B16-F10 [10]): Active
Activity [11]: Non-Toxic
Activity [12]: Non-Toxic
Activity [13]: Toxic
Activity [14]: Non-Toxic
Activity [15]: Non-Toxic
Activity [16]: Non-Toxic
Activity (B16-F10 [17]): Active
Activity (B16-F10 [18]): Active
Activity (B16-F10 [19]): Active

SMILES: O=C(CCCOc1ccc(-c2nc3ccc(-c4nc5ccccc5[nH]4)cc3[nH]2)cc1)NO
IC50 (Histone deacetylase): > 1000 nM
